Experimental data taken from PubChem BioAssay (NCI).
“And” between values parts separate entries of the source, which are not always exact repeats. Equal entries are not always repeated.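 Interpolation was linear, between the two tested concentrations surrounding the appropriate level; five concentrations were tested over 48 hours in 96-well plates. GI50 is the concentration that inhibits growth by half. TGI is the concentration that stops growth completely.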

Key:
Assay in all cases: NCI anticancer screen, dose series, 48 h
[1] = test system: CCRF-CEM leukemia
[2] = test system: SF-539 CNS
[3] = test system: SF-268 CNS
[4] = test system: HOP-92 NSCLC
[5] = test system: ACHN renal
[6] = test system: TK-10 renal
[7] = test system: MDA-MB-231 breast
[8] = test system: OVCAR-8 ovarian
[9] = test system: UACC-62 melanoma
[10] = test system: SF-295 CNS

Row | Compound | GI50 [1] | TGI [1] | GI50 [2] | TGI [2] | GI50 [3] | TGI [3] | GI50 [4] | TGI [4] | GI50 [5] | TGI [5] | GI50 [6] | TGI [6] | GI50 [7] | TGI [7] | GI50 [8] | TGI [8] | GI50 [9] | TGI [9] | GI50 [10] | TGI [10]
1 | O=c1n(CC2CO2)c(=O)n(CC2CO2)c(=O)n1CC1CO1 (stereo not given) | 6.05 µM and 2.92 µM | 223 µM and > 100 µM | 2.92 µM | 41.6 µM and 24.7 µM | 11.7 µM and 3.66 µM | 241 µM and > 100 µM | 18 µM and 7.22 µM | 63.7 µM and 111 µM and > 100 µM | 3.68 µM and 0.504 µM | 140 µM and > 100 µM | 21.1 µM | 121 µM and > 100 µM | 35.1 µM and 52.4 µM | 84.8 µM and > 100 µM | 25.3 µM and 12.9 µM | 148 µM and > 100 µM | 5.58 µM | 41.9 µM and 75.5 µM | 4.18 µM | 34.1 µM and 126 µM and > 100 µM
2 | COCCOc1cc(F)c2c(Nc3ccc(NC(=O)Cn4cc(C(C)C)nn4)cc3)ncnc2c1 | > 100 µM | > 100 µM | 6.41 µM | > 100 µM | 37.5 µM | > 100 µM | 5.99 µM | 92 µM | 51.5 µM | > 100 µM | > 100 µM | > 100 µM | 41.6 µM | > 100 µM | 37.4 µM | > 100 µM | 85.4 µM | > 100 µM | 53.5 µM | > 100 µM
3 | Cc1ccc(Cl)cc1Nc1nc(C(F)(F)F)ccc1C(=O)N1CCN(c2ccc(F)cc2)CC1 | 15.1 µM | 53.5 µM | 14.8 µM | 30.2 µM | 15.8 µM | 36.5 µM | 12.5 µM | 30.4 µM | 11.8 µM | 47.7 µM | 11.2 µM | 26.4 µM | 10.3 µM | 24.4 µM | 16.6 µM | 50.2 µM | 11.5 µM | 24.1 µM | 15.6 µM | 32.5 µM
4 | COc1ccc(C(=O)c2cc(OC)c(C)c(OC)c2)cc1OC(=O)CCl | 0.331 µM | > 100 µM | 0.172 µM | 0.58 µM | 1.33 µM | > 100 µM | 3.22 µM | 58.5 µM | 0.7 µM | 35.5 µM | 17.2 µM | > 100 µM | 0.353 µM | 18.6 µM | 0.507 µM | > 100 µM | 1.61 µM | 22.4 µM | 0.764 µM | 30.7 µM
5 | COc1cc(C(=O)c2cc(C)c3[nH]c4ccc(Cl)cc4c3c2C)cc(OC)c1OC | 0.0399 µM | > 100 µM | 0.0284 µM | 0.461 µM | 0.182 µM | 16.2 µM | 0.156 µM | 4.65 µM | 0.0593 µM | 12.8 µM | 2.71 µM | 29.4 µM | 0.0496 µM | 2.32 µM | 0.0439 µM | 10.7 µM | 0.0376 µM | 8.4 µM | 0.0284 µM | 0.303 µM
6 | Cc1nnc(S(=O)(=O)c2ccc(N=Nc3c(N)nc(N)nc3N)cc2)s1 |  | > 100 µM |  | > 100 µM |  | > 100 µM |  | > 100 µM |  | > 100 µM |  | > 100 µM |  | > 100 µM |  | > 100 µM |  | > 100 µM |  | > 100 µM
7 | CC(C)c1ccc(Nc2ccc3c(OCCCN4CCN(C)CC4)cccc3n2)cc1 | 3.74 µM | 21.3 µM | 11.1 µM | 30 µM | 12.2 µM | 27.4 µM | 10.6 µM | 27.4 µM | 12.6 µM | 28 µM | 16.5 µM | 30.7 µM | 2.11 µM | 6.92 µM | 17.8 µM | 33.3 µM | 2.17 µM | 4.86 µM | 3.63 µM | 15.3 µM
8 | Clc1coc2nc3ccccc3c(Nc3ccc4c(c3)OCO4)c12 | 1.54 µM | 6.96 µM | 2.46 µM | 7.42 µM | 5.6 µM | 54 µM | 8 µM | 63.2 µM | 1.15 µM | 12.1 µM | 2.59 µM | 17.4 µM | 0.974 µM | 81.3 µM | 2.33 µM | 21.2 µM | 0.408 µM | 5.32 µM | 1.21 µM | 4.42 µM
9 | Cn1c(=O)c2c(nc(Nc3cc(=O)[nH]c(=O)[nH]3)n2Cc2ccccc2)n(C)c1=O | > 100 µM | > 100 µM | > 100 µM | > 100 µM | > 100 µM | > 100 µM | 7.51 µM | > 100 µM | > 100 µM | > 100 µM | > 100 µM | > 100 µM | > 100 µM | > 100 µM | > 100 µM | > 100 µM | 65.8 µM | > 100 µM | > 100 µM | > 100 µM
10 | O=S(=O)([O-])c1ccc2c(c1)-c1nc-2nc2[n-]c(nc3nc(nc4[n-]c(n1)c1ccc(S(=O)(=O)[O-])cc41)-c1cc(S(=O)(=O)[O-])ccc1-3)c1ccc(S(=O)(=O)[O-])cc21.[Cu+2].[Na+] | 0.58 µM | > 39.5 µM | > 100 µM | > 100 µM | > 69.8 µM | > 100 µM | 38.9 µM | > 100 µM | > 74.3 µM | > 100 µM | > 55.9 µM | > 100 µM | > 100 µM | > 100 µM | > 100 µM | > 100 µM | 21.7 µM | > 100 µM | 98.4 µM | > 100 µM
11 | C=C(C)[C@@]12OC3(/C=C/C=C/CCCCC)O[C@@H]1[C@@H]1[C@@H]4O[C@]4(CO)[C@@H](O)[C@]4(O)C(=O)C(C)=C[C@H]4[C@@]1(O3)[C@H](C)[C@H]2OC(=O)c1ccccc1 | < 0.01 µM | 2.66 µM | 1.41 µM | 2.8 µM | 1.7 µM | 3.15 µM | < 0.01 µM | 2.13 µM | 1.16 µM | 4.43 µM | < 0.0106 µM | 2.17 µM | 0.118 µM | 2.27 µM | 2.77 µM | 7.08 µM | 3.19 µM | 6.86 µM | < 0.01 µM | 4.9 µM
12 | C[As](C)SC1OC(CO)C(O)C1O (stereo not given) | 0.259 µM | 1.13 µM | 0.222 µM | 0.749 µM | 0.998 µM | 5.73 µM | 0.0884 µM | 0.955 µM | 0.257 µM | 1.03 µM | 0.174 µM | 0.816 µM | 0.725 µM | 3.69 µM | 0.694 µM | 3.15 µM | 0.385 µM | 1.54 µM | 2.28 µM | 7.16 µM
13 | CC1OC2CC(=O)OC2C2=C1C(=O)c1c(O)cccc1C2=O (stereo not given) | 0.0269 µM | 0.501 µM | 0.12 µM | 0.284 µM | 0.163 µM | 0.436 µM | 0.151 µM | 0.315 µM | 0.0299 µM | 0.0992 µM | 0.0795 µM | 0.283 µM | 0.0684 µM | 0.334 µM | 0.0501 µM | 0.36 µM | 0.135 µM | 0.287 µM | 0.956 µM | 2.62 µM
14 | O=S(=O)(Nc1cc(F)cc(Cl)c1)c1ccc(-c2cnc(C3CC3)o2)cc1 | 1.71 µM | > 100 µM | 1.25 µM | 10.5 µM | 6.47 µM | 26.2 µM | 0.979 µM | 8.45 µM | 4.67 µM | 45 µM | 6.29 µM | 29.6 µM | 4.14 µM | 19.3 µM | 3.72 µM | 21.5 µM | 0.458 µM | 14.5 µM | 0.389 µM | 10.3 µM
15 | C=C(F)C(=O)N1CCN(c2nc(OC[C@@H]3CCCN3C)nc3c2CCN(c2cccc4cccc(Cl)c24)C3)C[C@@H]1CC#N | 1.05 µM | 4.32 µM | 0.936 µM | 2.25 µM | 1.37 µM | 3.37 µM | 0.437 µM | 1.85 µM | 0.962 µM | 2.58 µM | 1.1 µM | 2.67 µM | 0.752 µM | 2.23 µM | 0.473 µM | 1.79 µM | 1.66 µM | 3.25 µM | 1.48 µM | 3.13 µM
16 | CCOC(=O)/C=C/C(C(=O)/C=C/c1ccc(OC2CCCCO2)c(OC)c1)=C(O)\C=C\c1ccc(OC2CCCCO2)c(OC)c1 (stereo not given) | 2.69 µM | 8.35 µM | 20.3 µM | 53.1 µM | 4.88 µM | > 100 µM | 20.2 µM | 58.2 µM | 3.61 µM | 12.5 µM | 2.84 µM | 9.21 µM | 2.56 µM | 6.73 µM | 2.51 µM | 6.2 µM | 3.02 µM | 12.8 µM | 10.7 µM | 42.8 µM
17 | Oc1ccc(Cl)cc1Cc1cc(Cl)cc(Cl)c1O | 6.53 µM | 88 µM | 2.33 µM | 6.65 µM | 3.82 µM | 57.9 µM | 1.19 µM | 6.42 µM | 3.69 µM | 18 µM | 7.88 µM | 44.1 µM | 7.92 µM | 48.1 µM | 12.8 µM | 76.4 µM | 4.55 µM | 18.8 µM | 6.66 µM | 57.5 µM
18 | C#Cc1cccc(Nc2ncnc3cc(OC)c(OCCCCCCC(=O)NO)cc23)c1 | 0.0404 µM | 5.85 µM | 0.198 µM | 1.34 µM | 0.379 µM | 2.65 µM | 0.0512 µM | 0.415 µM | 0.127 µM | 2.48 µM | 0.185 µM | 2.36 µM | 0.274 µM | 2.29 µM | 0.117 µM | 4.43 µM | 0.0797 µM | 0.344 µM | 0.311 µM | 2.18 µM
19 | COC(=O)/C=C/c1cc(O)c2oc(-c3ccc(O)c(O)c3)c(C(=O)OC)c2c1 | 0.402 µM | > 21.8 µM | 0.159 µM | 1.96 µM | 1.52 µM | 12.5 µM | 1.57 µM | 11.3 µM | 0.361 µM | 10.4 µM | 3.89 µM | 16.9 µM | 0.927 µM | 15.8 µM | 0.521 µM | 13 µM | 0.802 µM | 5.96 µM | 3.13 µM | 11.7 µM
20 | CCCCc1c(OC)cc(O)c2c1C(=O)c1[nH]c(C(=O)O)c(O)c(=O)c1C2=O |  | > 100 µM |  | 2.54 µM |  | > 100 µM |  | > 100 µM |  | > 100 µM |  | > 100 µM |  | 3.49 µM |  | 28.8 µM |  | 6.96 µM |  | > 100 µM
21 | COc1ccc(N2C(=O)C(c3ccccc3)(c3ccccc3)C23C(=O)N(C)c2ccccc23)cc1 (stereo not given) | > 100 µM | > 100 µM | > 100 µM | > 100 µM | > 100 µM | > 100 µM | > 100 µM | > 100 µM | > 100 µM | > 100 µM | > 100 µM | > 100 µM | 54 µM | > 100 µM | > 100 µM | > 100 µM | > 100 µM | > 100 µM | > 100 µM | > 100 µM
